Several values for one entry are separate records, joined by “and”; a condition that tells them apart may be missing. Equal values may be shown once. Read-outs that look alike come from different tables or passages of the source. No end group written: not given here.
Tests used:
[1] = biological target: T1, Candida albicans pheromone GPCR CaSte2 (Candida albicans); test: cell-based or functional assay
T1 sequence: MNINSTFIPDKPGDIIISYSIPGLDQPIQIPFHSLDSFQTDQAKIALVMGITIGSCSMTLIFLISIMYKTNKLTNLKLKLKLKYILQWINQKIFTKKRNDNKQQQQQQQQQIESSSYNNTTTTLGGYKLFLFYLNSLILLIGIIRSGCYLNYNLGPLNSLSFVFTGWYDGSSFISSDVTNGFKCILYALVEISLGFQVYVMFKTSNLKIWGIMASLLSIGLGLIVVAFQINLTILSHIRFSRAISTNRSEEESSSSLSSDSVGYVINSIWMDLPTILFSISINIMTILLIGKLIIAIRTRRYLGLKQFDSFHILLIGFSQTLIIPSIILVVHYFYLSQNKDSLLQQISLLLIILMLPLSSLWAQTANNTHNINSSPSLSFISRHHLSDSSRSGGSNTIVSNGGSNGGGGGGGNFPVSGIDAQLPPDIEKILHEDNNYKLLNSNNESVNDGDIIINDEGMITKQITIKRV

[2] = biological target: T1, Candida albicans pheromone GPCR CaSte2 (Candida albicans); test: cell-based or functional assay; parameters: EC50 compared to the native CaPep (orders of magnitude): unit not given beside the values
[3] = test system: Aspergillus spp and S. cerevisiae GPCRs; format: cell-based; details: 40 μM peptide
Description: (§1) FIGS. 6A-6B show Aspergillus spp peptide cross-reactivity with Aspergillus spp GPCRs. […] The test concentration was set at 40 μM of a given peptide ligand.
(§2) Next, 13 GPCRs of all genome-mined Aspergillus species, including A. fumigatus from Example 1 and S. cerevisiae, along with inducible fluorescent readout were integrated into optimized parent strain. S. cerevisiae was included to test cross-reactivity with S. cerevisiae GPCR and peptide, since this peptide/GPCR pair will be used for building multi-cellular amplification communities. Then, each strain was activated with all Aspergillus peptides and S. cerevisiae peptide (FIG. 6A). Most of the Aspergillus GPCRs were responsive to at least one peptide, except A. terreus, A. flavus/A. oryzae (same GPCR sequence), A. niger and A. nidulans which were not responsive to any tested peptide. […] The majority of peptides have the same sequence (A. fischeri, A. fumigatus, A. lentulus, A. novofumigatus, A. udagawae and A. viridinutans) and the other active peptides differ only in the third amino acid position from N-terminus (A. clavatus, A. flavus and A. oryzae).

[4] = biological target: T2, Botrytis cinerea cognate pheromone receptor (BcSte2) (Botrytis cinerea); test: cell-based or functional assay
T2 sequence: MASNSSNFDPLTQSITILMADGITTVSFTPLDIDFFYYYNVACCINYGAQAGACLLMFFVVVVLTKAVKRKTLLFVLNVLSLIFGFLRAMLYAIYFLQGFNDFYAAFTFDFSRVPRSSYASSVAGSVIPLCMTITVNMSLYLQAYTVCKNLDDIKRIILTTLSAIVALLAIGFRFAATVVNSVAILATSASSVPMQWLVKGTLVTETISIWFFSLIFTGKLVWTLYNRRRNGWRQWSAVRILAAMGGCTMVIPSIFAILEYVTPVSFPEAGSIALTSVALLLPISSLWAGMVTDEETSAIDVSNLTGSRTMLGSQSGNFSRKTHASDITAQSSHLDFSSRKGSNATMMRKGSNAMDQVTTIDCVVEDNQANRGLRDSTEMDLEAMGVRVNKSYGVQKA

CaSte2 = CaSte2 (yTC384), no protease; Hill function best-fit ± standard error
[5] = test system: CaSte2 with protease CaBar1; details: for Hill Slope: CaSte2 + CaBar1 (yBB02), Hill function best-fit ± standard error; for cleavage by CaBar1 protease: judged from CaSte2 activation with/without CaBar1
[6] = test system: CaSte2 with protease CaBar1
[7] = biological target: SpSte2 with peptide proteases (Schizosaccharomyces pombe, UniProt Q00619); test: SpSte2 biosensor dose-response with complementary and non-complementary proteases; format: cell-based
Chain of SpSte2 with peptide proteases (Q00619 whole entry): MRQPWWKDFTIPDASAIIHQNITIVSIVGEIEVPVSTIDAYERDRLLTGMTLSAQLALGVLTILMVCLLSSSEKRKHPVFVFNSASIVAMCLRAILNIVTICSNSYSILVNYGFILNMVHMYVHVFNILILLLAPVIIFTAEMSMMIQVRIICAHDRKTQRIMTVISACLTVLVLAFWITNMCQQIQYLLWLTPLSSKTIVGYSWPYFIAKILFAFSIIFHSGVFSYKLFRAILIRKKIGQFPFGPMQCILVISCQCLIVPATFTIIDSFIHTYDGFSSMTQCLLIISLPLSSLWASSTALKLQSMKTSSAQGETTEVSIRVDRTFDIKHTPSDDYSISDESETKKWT

A. clavatus GPCR = format: cell-based; details: 40 μM peptide
Description: as §1, §2

[8] = Cyclic voltammetry of peptides and copper-peptide complexes; format: physicochemical; details: for potential peaks in cyclic voltammogram: 500 μM peptide in 10 mM KCl, scan rates 0.2, 0.1, 0.05 V/s; for redox potential peak of the Cu2+ complex: 1 mM tripeptide, 1 mM CuCl2, 50 mM Tris/HCl (pH 7.4), 0.1 M NaClO4, glassy carbon, 0.3 V/s
[9] = biological target: C. albicans pheromone peptide (CaPep) (Candida albicans); test: cell-based or functional assay
CpSte2 = format: cell-based, Candida parapsilosis
[10] = Metal-binding peptide absorbance scan; format: physicochemical
[11] = test system: SoSte2 with peptide proteases; format: cell-based, Schizosaccharomyces octosporus
[12] = test system: CaSte2 with protease CaBar1; details: read-out: "EC50" of the first response phase; biphasic dose-response, phase treated as separate Hill fit
[13] = biological target: S. cerevisiae pheromone peptide (ScPep) (Saccharomyces cerevisiae); test: cell-based or functional assay
[14] = biological target: T3, Candida parapsilosis pheromone GPCR CpSte2 (native) (Candida parapsilosis); test: cell-based or functional assay
T3 sequence: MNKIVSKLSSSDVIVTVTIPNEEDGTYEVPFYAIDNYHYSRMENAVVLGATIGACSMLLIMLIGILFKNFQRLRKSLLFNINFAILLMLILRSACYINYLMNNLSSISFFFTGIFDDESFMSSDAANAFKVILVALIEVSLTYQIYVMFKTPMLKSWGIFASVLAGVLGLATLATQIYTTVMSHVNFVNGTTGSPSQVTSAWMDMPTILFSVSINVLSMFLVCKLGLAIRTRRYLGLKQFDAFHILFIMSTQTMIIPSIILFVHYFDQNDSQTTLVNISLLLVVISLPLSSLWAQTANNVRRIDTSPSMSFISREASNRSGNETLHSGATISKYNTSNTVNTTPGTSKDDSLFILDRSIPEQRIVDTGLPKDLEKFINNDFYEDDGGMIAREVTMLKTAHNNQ

[15] = biological target: S. japonicus pheromone peptide (SjPep) (Schizosaccharomyces japonicus); test: cell-based or functional assay
[16] = biological target: T4, Candida albicans pheromone GPCR CaSte2 (Candida albicans); test: cell-based or functional assay
T4 chain: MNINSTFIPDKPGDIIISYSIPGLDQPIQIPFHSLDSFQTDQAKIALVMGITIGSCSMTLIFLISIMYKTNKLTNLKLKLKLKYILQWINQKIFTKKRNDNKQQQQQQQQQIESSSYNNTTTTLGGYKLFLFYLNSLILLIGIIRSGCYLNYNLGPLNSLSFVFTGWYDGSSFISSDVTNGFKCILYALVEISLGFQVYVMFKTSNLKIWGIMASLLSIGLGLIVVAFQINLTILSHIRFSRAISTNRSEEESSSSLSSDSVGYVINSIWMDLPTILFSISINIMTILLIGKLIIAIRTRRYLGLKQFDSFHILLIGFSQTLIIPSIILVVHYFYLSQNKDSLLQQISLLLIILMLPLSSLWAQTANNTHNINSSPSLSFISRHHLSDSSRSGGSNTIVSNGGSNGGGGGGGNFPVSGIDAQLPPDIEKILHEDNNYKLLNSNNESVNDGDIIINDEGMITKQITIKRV

[17] = 1 mM copper, 1 mM peptide, 50 mM Tris/HCl, NaClO4 buffer

## CaPep11A (peptide)
[1]
  Top: 180 A.U. and 120 A.U.
[2]
  decrease in maximal activation compared to the native CaPep: 50%

## WCRFAGRIC (SEQ ID NO: 1) or WCRFRGQVC [A. nidulans peptide]
[3]
  activation of tested GPCRs: did not activate any tested GPCR

## BcPep with its first cysteine changed into serine (peptide)
[4]
  maximal activation compared to the original BcPep: 4 fold

## CC(C)C[C@H](NC(=O)[C@H](CCCNC(=N)N)NC(=O)[C@H](Cc1ccccc1)NC(=O)CN)C(=O)N[C@H](C(=O)N[C@@H](CC(N)=O)C(=O)N[C@@H](Cc1ccccc1)C(=O)NCC(=O)N[C@@H](Cc1ccc(O)cc1)C(=O)N[C@@H](Cc1ccccc1)C(=O)N[C@@H](CCC(=O)O)C(=O)N1CCC[C@H]1C(=O)N[C@@H](C)C(=O)O)[C@@H](C)O [CaPep13A]
CaSte2
  Hill Slope: 0.81 ± 0.04
[5]
  Hill Slope: 0.94 ± 0.06
  cleavage by CaBar1 protease: cleavable
[5]; listed as GFRLTNFGYFEPA
  cleavage by CaBar1 protease: specifically cleaved
[6]; +CaBar1 strain, lycopene, 1-h preincubation before adding peptides, 8-h incubation
  EC50: 1 µM
[6]; liquid culture, same peptide concentrations, 1-h preincubation, 8-h incubation (FIG. 37)
  effect of CaBar1 on color onset, lycopene readout: diminishes color onset

## TYADFLRAYQSWNTFVNPDRPNL [SpPep]
[7]
  EC50: > 100 µM
[7]; ScBar1, CaBar1
  cleavage by ScBar1 and CaBar1: did not cleave
[7]; SjSxa2 and SoSxa2
  shift of apparent EC50 by non-complementary proteases: between half and one order of magnitude
[7]; SpSxa2, within measured concentration range
  response with complementary protease: practically completely attenuated the response

## WCELPGQGC [A. clavatus peptide]
A. clavatus GPCR
  response of A. clavatus GPCR: strongest response

## SDS
Live yeast biosensor
  concentration that does not impact the vitality and function of the live yeast biosensor: up to 0.01%

## CaPep12A13A (peptide)
[1]
  LogEC50: -4.8 log M and -4.5 log M
  Top: 170 A.U.
[2]
  EC50 compared to the native CaPep (orders of magnitude): 2

## CaPep10A (peptide)
[1]
  LogEC50: -4.6 log M and -4.2 log M
  Top: 180 A.U. and 98 A.U.
[2]
  EC50 compared to the native CaPep (orders of magnitude): 2

## AfPep: natural fungal peptide containing two cysteine residues (WCHLPGQGC; Synthetic: AfPep)
[8]
  potential peaks in cyclic voltammogram: None of the tested peptides showed any unique and distinguishable potential peaks

## GWIGRCGVPGSSC [BcomPep, Baudoinia compniacensis mating peptide]
[8]
  potential peaks in cyclic voltammogram: None of the tested peptides showed any unique and distinguishable potential peaks

## Candida albicans Bar1 aspartyl protease (CaBar1) (enzyme)
[9]
  shift of apparent EC50 on the cognate GPCR with the protease co-expressed (order of magnitude): 1

## WCALPGQGC [A. oryzae peptide]
A. clavatus GPCR
  response of A. clavatus GPCR: strongest response

## KPHWTTYGYYEPQ [CpPep]
CpSte2; optimized strain yTC453
  basal expression: ~0 A.U.
CpSte2; yMJ194, natural pathway
  EC50: ~0.003 µM
  maximal activation: ~250 A.U.
CpSte2; yTC453, optimized
  EC50: ~0.009 µM
  maximal activation: ~3,300 A.U.

## CaPep12A (peptide)
[1]
  LogEC50: -5.3 log M and -5 log M
  Top: 580 A.U. and 540 A.U.
[2]
  EC50 compared to the native CaPep (orders of magnitude): 2

## His-Ala-His
[8]
  redox potential peak of the Cu2+ complex: 1.1 V

## CaPep9A10A (peptide)
[1]
  LogEC50: -4.7 log M and -4.6 log M
  Top: 570 A.U. and 510 A.U.
[2]
  EC50 compared to the native CaPep (orders of magnitude): 2

## His-His-Trp
[10]; [17]
  absorbance maxima of copper complexes: 620 nm
[10]; nickel complexes
  absorbance peaks of nickel complexes: did not show absorbance peaks
[8]
  redox potential peak of the Cu2+ complex: 0.8 V

## BcPep with its second cysteine changed into serine (peptide)
[4]
  maximal activation compared to the original BcPep: 4 fold

## TYEDFLRVYKNWWSFQNPDRPDL [SoPep]
[11]
  cleavage by ScBar1 and CaBar1: did not cleave
  shift of apparent EC50 by non-complementary proteases: between half and one order of magnitude
  shift of apparent EC50 towards higher concentration by complementary protease: one and a half orders of magnitude

## PHGGGWGQ
[10]
  absorbance maxima of copper complexes: 620 nm
  absorbance peaks of nickel complexes: did not show absorbance peaks

## Tween20
Live yeast biosensor
  concentration that does not impact the vitality and function of the live yeast biosensor: up to 0.05%

## GARLTNFGYFEPA [CaPep2A13A]
[12]
  EC50: ~0.0003 µM
CaSte2
  Hill Slope: 1.2 ± 0.1
[5]
  Hill Slope: 0.86 ± 0.10
  cleavage by CaBar1 protease: non-cleavable
[5]; biosensor with protease CaBar1 under intermediate pRPL18B promoter, 10-h incubation
  EC50: ~0.07 µM

## AAH
[10]; [17]
  absorbance maxima of copper complexes: 520 nm

## WCVLPGQPC [A. niger peptide]
[3]
  activation of tested GPCRs: did not activate any tested GPCR

## Saccharomyces cerevisiae Bar1 aspartyl protease (ScBar1) (from UniProt P12630 25-587) (enzyme)
[13]
  shift of apparent EC50 on the cognate GPCR with the protease co-expressed (order of magnitude): 1

## Candida parapsilosis cognate peptide (CpPep)
[14]
  EC50, mCherry, yMJ194: 0.003 µM
  EC50, mCherry, yTC453: 0.009 µM
  maximal activation, mCherry, yMJ194: 250 A.U.
  maximal activation, mCherry, yTC453: 3300 A.U.

## Schizosaccharomyces japonicus serine carboxypeptidase Sxa2 (SjSxa2) (enzyme)
[15]
  shift of apparent EC50 on the cognate GPCR with the protease co-expressed (order of magnitude): 1

## O.O.[Cl][Cu][Cl] [Copper, CuCl2×2H2O]
[10]; copper alone in Tris/HCl buffer
  absorbance peak: 630 nm

## GARLTNFGYFEPG (modifications not checked) [CaPep2A]
[16]
  EC50, ymTurquoise2, strain with the protease CaBar1: 0.04 µM
  EC50, ymTurquoise2, strain without the protease: 0.05 µM
  LogEC50: -7.4 log M and -6.9 log M
  Top: 460 A.U. and 430 A.U.

## GFRLTNFGYFEPA (modifications not checked) [CaPep13A]
[16]
  EC50, lycopene readout, strains preincubated, +CaBar1: 1 µM
  EC50, lycopene readout, strains preincubated, -CaBar1: 0.08 µM
  Top: 820 A.U. and 590 A.U.

— patent US20240368664A1, “LIVE YEAST BIOSENSORS AND METHODS OF USE THEREOF” (priority 2021, published 2024)
